Entries after “also recorded” stand apart in the source; their conditions may differ.
What was measured:
Assay type in all cases: cell-based
[1] = test system: Corynebacterium glutamicum strain R; test: Influence of para-aminobenzoic acid on glucose consumption rate (jar fermenter); details: 0, 50, 100 or 200 mM para-aminobenzoic acid, 5% glucose, 33° C., pH 7.0
Experimental: Influences of para-aminobenzoic acid on the glucose consumption rate were examined by a method described below, using Corynebacterium glutamicum strain R.
After a wild strain of Corynebacterium glutamicum was inoculated in 10 ml of the A-liquid medium containing 2% glucose, aerobic shaking culture was carried out at 33° C. for 18 hours. After the same strain was inoculated in 100 ml of the A-liquid medium containing 2% glucose, aerobic shaking culture was carried out at 33° C. for 12 hours. […]
Bacterial cells of the strain grown under the above-described conditions were collected by centrifugation (4° C., 5000×g, 10 minutes), and the bacterial cells thus obtained were washed with 0.9% sodium chloride aqueous solution once. […] The glucose concentration in the reaction solution was monitored by using a glucose sensor.

[2] = test system: Streptomyces lividans 1326; test: Growth inhibition by para-aminobenzoic acid in aerobic culture (OD610); details: for growth of Streptomyces lividans 1326: aerobic shaking culture 28° C.
Experimental: (§1) Experiments about growth inhibition by para-aminobenzoic acid in aerobic culture were carried out, regarding Corynebacterium glutamicum, Escherichia coli, Streptomyces lividans, Pseudomonas putida, and Saccharomyces cerevisiae. No example of Pseudomonas putida S12 used in the present experiment has been reported to be a para-aminobenzoic acid producing host, but it was used as a comparative example, since it has been reported to be a solvent resistant bacterium and could be considered to have excellent resistance to para-aminobenzoic acid.
Streptomyces lividans 1326 was applied to LB-agar plate, and was incubated at 28° C. for 24 hours in a dark place. Streptomyces lividans grown on the plate described above was inoculated in LB-liquid medium with a coil spring, and aerobic shaking culture was carried out at 28° C. for 24 hours. Streptomyces lividans grown under the above-described conditions was inoculated in 10 ml of LB-liquid medium with a coil spring so that the initial bacterial cell concentration OD610=0.2. Simultaneously, para-aminobenzoic acid was added so that the final concentrations thereof became 0, 100, 200, 300 mM, and aerobic shaking culture was carried out at 28° C. The growth of bacterial cells was determined by measuring OD610.
(§2) How the addition of para-aminobenzoic acid to medium influenced aerobic growth was analyzed, and the results are shown in FIG. 1.

Pseudomonas putida S12 = test: as above
Experimental: as §1
Pseudomonas putida S12 was applied to the LB-agar plate, and was incubated at 30° C. for 15 hours in a dark place. Pseudomonas putida grown on the plate described above was inoculated in the LB-liquid medium, and aerobic shaking culture was carried out at 30° C. for 13 hours. Pseudomonas putida grown under the above-described conditions was inoculated in 100 ml of LB-liquid medium so that the initial bacterial cell concentration OD610=0.05, simultaneously, para-aminobenzoic acid was added so that the final concentrations thereof became 0, 100, 200, 300 mM, and aerobic shaking culture was carried out at 30° C. The growth of bacterial cells was determined by measuring absorbance of OD610.
as §2

[3] = test system: Saccharomyces cerevisiae W303; test: as above; details: aerobic shaking culture 30° C.
Experimental: as §1
Saccharomyces cerevisiae W303 was applied to YEPD-agar plate [containing 2% polypeptone, 1% yeast extract, 2% glucose, and 1.5% agar] and was incubated at 30° C. for 20 hours in a dark place. Saccharomyces cerevisiae grown on the plate described above was inoculated in the YEPD-liquid medium [containing 2% polypeptone, 1% yeast extract, and 2% glucose], and aerobic shaking culture was carried out at 30° C. for 13 hours. Saccharomyces cerevisiae grown under the above-described conditions was inoculated in 100 ml of YEPD-liquid medium so that the initial bacterial cell concentration OD610=0.05. […] The growth of bacterial cells was determined by measuring OD610.
as §2

Escherichia coli JM109 = test: as above; details: aerobic shaking culture 37° C.
Experimental: as §1
Escherichia coli JM109 was applied to LB-agar plate [containing 1% polypeptone, 0.5% yeast extract, 0.5% sodium chloride, and 1.5% agar], and was incubated at 37° C. for 15 hours in a dark place. Escherichia coli grown on the plate described above was inoculated in LB-liquid medium [containing 1% polypeptone, 0.5% yeast extract, and 0.5% sodium chloride], and was subjected to aerobic shaking culture at 37° C. for 13 hours. Escherichia coli grown under the above-described conditions was inoculated in 100 ml of LB-liquid medium so that the initial bacterial cell concentration OD610=0.05. […] The growth of bacterial cells was determined by measuring OD610.
as §2

[4] = test system: Corynebacterium glutamicum strain R; test: as above; details: aerobic shaking culture 33° C.
Experimental: as §1
Corynebacterium glutamicum strain R was applied to an A-agar plate containing glucose at 4%, and was incubated at 33° C. for 15 hours in a dark place. One platinum loop of Corynebacterium glutamicum grown on the plate described above was inoculated in a test tube having therein 10 ml of the A-liquid medium containing of glucose at 4%, and was subjected to aerobic shaking culture at 33° C. for 15 hours. Corynebacterium glutamicum grown under the above-described conditions was inoculated in 10 ml of the A-liquid medium containing glucose at 4% so that the initial bacterial cell concentration OD610=0.05. […] The growth of bacterial cells was determined by measuring OD610.
as §2

SMILES: Nc1ccc(C(=O)O)cc1 [para-aminobenzoic acid, 4-aminobenzoic acid]
- saccharide (glucose) consumption rate of Corynebacterium glutamicum [1]: no substantial decrease
- growth of Streptomyces lividans 1326 ([2]; 100 mM para-aminobenzoic acid): significantly inhibited
- growth of Streptomyces lividans 1326 ([2]; 200 mM para-aminobenzoic acid): substantially completely inhibited
- growth of Streptomyces lividans ([2]; 300 mM para-aminobenzoic acid): substantially completely inhibited
- growth of Pseudomonas putida S12 (Pseudomonas putida S12; 100 mM para-aminobenzoic acid, aerobic shaking culture 30° C.): substantially completely inhibited
- growth of Pseudomonas putida (Pseudomonas putida S12; 300 mM para-aminobenzoic acid): substantially completely inhibited
- growth of Saccharomyces cerevisiae W303 ([3]; 200 mM para-aminobenzoic acid): strongly inhibited
- growth of Saccharomyces cerevisiae W303 ([3]; 300 mM para-aminobenzoic acid): extremely strongly inhibited; also recorded: substantially completely inhibited
- growth of Escherichia coli JM109 (Escherichia coli JM109; 100 mM para-aminobenzoic acid): significantly inhibited
- growth of Escherichia coli JM109 (Escherichia coli JM109; 300 mM para-aminobenzoic acid): substantially completely inhibited
- growth of Corynebacterium glutamicum strain R ([4]; 300 mM para-aminobenzoic acid): able to grow
- growth of Corynebacterium glutamicum ([4]; 400 mM para-aminobenzoic acid): able to grow
